15 compounds from US5843941A, “Ras farnesyl transferase inhibitors” (Genentech, Inc., priority 1994, dated 1998) can be followed below.

Experiment [1] concerns farnesylated proteins F1, F2 and F3 in Met18b-2 cells. Kind of experiment: Inhibition of intracellular farnesylation in intact Met18b-2 cells, Triton-soluble proteins F1, F2, F3. It counts as cell-based, Chinese hamster. Conditions: for EC90: Cricetulus griseus, read-out: EC 90% "B isomer". The source says:
To study farnesylation in intact cells we used Met18b-2 cells, a line of Chinese hamster ovary (CHO) cells that takes up [3H]mevalonate efficiently (see Faust, J., and Krieger, M. J. Biol. Chem. 262, 1966 (1987)) owing to the production of a mevalonate transport protein (see Kim, C. M., Goldstein, J. L., Brown, M. S. J. Biol. Chem. 267, 23113 (1992)). The [3H]mevalonate is converted by the cells into [3H]farnesyl pyrophosphate and [3H]geranylgeranyl pyrophosphate, which are then attached to proteins (Kim, C. M., Goldstein, J. L., Brown, M. S. J. Biol. Chem. 267, 23113 (1992)). In the assay, stock cultures of Met18b-2 cells were seeded at a density of 3-105 cells per 60 mm dish in 3 ml of medium A (Dulbecco's modified Eagle medium/Ham's F12 medium (1:1, v/v) containing 100 U/ml penicillin and 100 μg/ml streptomycin) supplemented with 5% (v/v) fetal calf serum (FCS). On day 3, each monolayer was refed with 1 ml medium A supplemented with 1% FCS (dialyzed against 0.15 M NaCl). At this point the cells were treated with 100 μM compactin (see Brown, M. S., Faust, J. R., Goldstein, J. L., Kaneko, I., and Endo, A. J. Biol. Chem. 253, 1121 (1978)) which blocks the synthesis of unlabeled mevalonate within the cells. Each compound was dissolved at 25 mM in DMSO/10 mM DTT immediately before use and 10 μl of this solution added directly. After 2 hr incubation at 37° C., each monolayer received 100 μCi [3H]mevalonate (60 Ci/mmol, American Radiolabeled Chemicals, Inc.) added in 100 μl of the medium A, and the incubation continued for 4 hr. The cells were harvested by rinsing three times with 3 ml of 50 mM Tris-HCl/0.15 M NaCl (pH 7.5). 300 μl of lysis buffer (0.5X Dulbecco's phosphate-buffered saline containing 1% Triton X-100, 5 μg/ml leupeptin, 5 μg/ml pepstatin, 0.5 mM phenylmethylsulfonyl fluoride, and 0.05 U/ml aprotinin) was added to each monolayer. After incubation on ice for 5 mon, the lysates were centrifuged 30 sec in a microfuge at 12,000 g. The resulting supernatant was tranferred to a new tube, and each pellet was resuspended in 60 μl of lysis buffer. Protein concentrations were determined using the BCA protein assay reagent (Pierce) according to the manufacturer's instructions. Detergent-soluble (supernatant) and -insoluble (pellet) samples were mixed with 2X SDS sample buffer (see Laemmli, U. K. Nature 227, 680 (1970)) and heated at 95° C. for 5 min before electrophoresis. Each lane contained 90 μg protein, and was run on a 12.5% SDS-polyacrylamide gel. The gel was dried, treated with ENTENSIFY (NEN-DuPont), and exposed to Kodak XOMAT-AR film for 9 h at -80° C. to allow visualization of all prenylated proteins. Migration of [14C]methylated molecular weight standards (Amersham) were used as markers.
The results of this assay are shown in FIG. 3, using a final concentration of 250 μM for each inhibitor. […] As shown in the figure, none of the control peptides or control benzodiazepine-peptideomimetics altered the prenylation of proteins in intact cells.
Using the same cells and procedures followed above for Example 125, we measured the dose dependence upon the inhibition of farnesylation in intact cells. […] Compound 37B inhibited the famesylation of F1-3 detectably at 10 μM, and almost completely at 25 μM.
In this manner, it is possible to obtain data regarding the comparative potency of these inhibitors upon the level of intracellular farnesylation. We have chosen to report the EC90% values for these inhibitors as the concentration required for a reduction in the Triton- soluble labelling (denoted F-1, F-2, and F-3) to 90% of control cells (untreated).

The target in experiment [2] is T1, CAAX farnesyltransferase (Rattus norvegicus, UniProt Q02293+Q04631). The experiment in a line: In vitro inhibition of CAAX farnesyltransferase. The conditions noted are these: Table D. More on the design: purified to homogeneity from rat brain homogenates; from tissue; host or cells: rat brain; alternatively recombinant enzyme from a baculovirus expression system. It counts as biochemical. The protocol:
All compounds were tested for in vitro inhibition of CAAX protein farnesyltransferase. […] Alternatively, recombinant CAAX protein farnesyltransferase was also used in this assay. […] Seventy-two hrs after infection, the cells were harvested and disrupted and the enzyme isolated by chromatography on Q-Sepharose.
After incubation for 30 min at 37° C., the amount of [3H]famesyl group transferred to p21H-ras was measured by precipitation with SDS/trichloroacetic acid, filtration onto nitrocellulose, and scintillation counting.
Structures of the compounds tested are reproduced below. Compound numbers also refer to example numbers above.

The target in experiment [3] is T1, CAAX farnesyltransferase. Kind of experiment: In vitro farnesylation of the compound by CAAX farnesyltransferase (substrate test, thin layer chromatography). The experiment is classed as biochemical. Conditions: relative to tetrapeptide CVIM, 3.6 μM, 37° C., 30 min; for % farnesylation "A": diastereomer A; for % farnesylation "B": diastereomer B. The protocol:
After incubation at 37° C. for 30 min, the reaction was stopped by addition of 2 μl of 250 mM EDTA, and the entire reaction mixture was spotted onto a plastic-backed Silica Gel G thin layer sheet (20×20 cm, Brinkmann Inst.) and placed in a tank containing n-propyl alcohol/ammonium hydroxide/water (6:3:1 v/v/v).

Setting [4] is: diastereomer A, read-out: EC50 (μM) "A".
Where [5] appears, read: diastereomer B, read-out: EC50 (μM) "B".

Where two headings read alike, the source gives them in different places.

T1 sequence (Q02293 whole entry, one chain of several): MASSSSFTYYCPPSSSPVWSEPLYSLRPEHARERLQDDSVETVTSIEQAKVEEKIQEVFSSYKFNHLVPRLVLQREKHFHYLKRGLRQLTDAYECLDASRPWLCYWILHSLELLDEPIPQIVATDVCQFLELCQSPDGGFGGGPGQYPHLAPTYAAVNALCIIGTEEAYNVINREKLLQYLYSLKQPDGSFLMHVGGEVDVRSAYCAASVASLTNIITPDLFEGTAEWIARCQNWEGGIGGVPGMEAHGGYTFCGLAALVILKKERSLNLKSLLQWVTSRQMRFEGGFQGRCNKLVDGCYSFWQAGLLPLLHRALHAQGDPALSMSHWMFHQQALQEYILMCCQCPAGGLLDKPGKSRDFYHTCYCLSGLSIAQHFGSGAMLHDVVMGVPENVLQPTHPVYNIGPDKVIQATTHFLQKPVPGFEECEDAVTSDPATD

With `CSCC[C@H](NC(=O)CN1C(=O)C(N(C)C(=O)[C@@H](N)CSSC(C)(C)C)N=C(c2ccccc2)c2cc(Cl)ccc21)c1nnn[nH]1` (stereo partly drawn) [compound 116, N-[[3-[(2-amino-3-tert-butylthiomercapto-1-oxopropyl)methylamino]-2,3-dihydro-2-oxo-5-phenyl-7-chloro-1H-1,4-benzodiazepin-1-yl]acetyl]-L-methionine tetrazole], the EC90 in experiment [1] was 60 µM. Besides, the EC50 at CAAX farnesyltransferase [2] (setting [4]) was greater than 3 µM; at CAAX farnesyltransferase [2] (setting [5]), 0.03 µM.

Turning to `CN(C(=O)[C@@H](N)CSSC(C)(C)C)C1N=C(c2ccccc2)c2cc(Cl)ccc2N(CC(=O)N[C@@H](Cc2ccccc2)C(=O)OC2CCCCC2)C1=O` (stereo partly drawn) [compound 120, N-[[3-[(2-amino-3-tert-butylthiomercapto-1-oxopropyl)methylamino]-2,3-dihydro-2-oxo-5-phenyl-7-chloro-1H-1,4-benzodiazepin-1-yl]acetyl]-L-phenylalanine cyclohexyl ester], in experiment [1], the EC90 is 5 µM. The EC50 at CAAX farnesyltransferase [2] (EC50 (μM) "A", diastereomer A) is greater than 3 µM; at CAAX farnesyltransferase [2] (EC50 (μM) "B", diastereomer B), greater than 3 µM.

For `CSCC[C@H](NC(=O)CN1C(=O)C(N(C)C(=O)C2CSC(C)N2)N=C(c2ccccc2)c2ccccc21)C(=O)O` (stereo partly drawn) [compound 43, N-[[3-[(2-methylthiazolidine-4-carboxyl)methylamino] -2,3-dihydro-2-oxo-5-phenyl-1H-1,4-benzodiazepin-1-yl]acetyl]-L-methionine], at CAAX farnesyltransferase [3], the “% farnesylation "A"” value was less than 1% and the “% farnesylation "B"” value is reported as less than 1%. In addition, on CAAX farnesyltransferase [2] (setting [4]), the EC50 worked out at 0.32 µM. Besides, at CAAX farnesyltransferase [2] (setting [5]), the EC50 worked out at 0.006 µM.

With `COC(=O)[C@H](CCSC)NC(=O)CN1C(=O)C(N(C)C(=O)[C@@H](N)CS)N=C(c2ccccc2)c2ccccc21` (some centres unmarked) [compound 37], on CAAX farnesyltransferase [3], the “% farnesylation "A"” value was less than 1% and the “% farnesylation "B"” value was 2%. Also, the EC50 at CAAX farnesyltransferase [2] (setting [4]) was 0.19 µM. Further, at CAAX farnesyltransferase [2] (setting [5]), the EC50 came to 0.05 µM.

In the case of `CSCC[C@H](NC(=O)CN1C(=O)C(NC(=O)[C@@H](N)CS)N=C(c2ccccc2)c2ccccc21)C(=O)O` (stereo partly drawn) [compound 28, N-[[3-[(2-amino-3-mercapto-1-oxopropyl)amino]-2,3-dihydro-2-oxo-5phenyl-1H-1,4-benzodiazepin-1-yl]acetyl]-L-methionine], on CAAX farnesyltransferase [3], the “% farnesylation "A"” value amounted to 9%. The “% farnesylation "B"” value at CAAX farnesyltransferase [3] is less than 1%. In addition, the EC50 came to 0.38 µM at CAAX farnesyltransferase [2] (setting [4]) and 0.431 µM on CAAX farnesyltransferase [2] (setting [5]).

As to `CSCC[C@H](NC(=O)CN1C(=O)C(N(C)C(=O)[C@@H](N)CS)N=C(c2ccccc2)c2ccccc21)C(=O)O` (stereo partly drawn) [compound 27, N-[[3-[(2-amino-3-mercapto-1-oxopropyl)methylamnino]-2,3-dihydro-2-oxo-5-phenyl-1H -1,4-benzodiazepin-1-yl]acetyl]-L-methionine], at CAAX farnesyltransferase [3], the “% farnesylation "A"” value worked out at 5% and the “% farnesylation "B"” value is less than 1%. In addition, the EC50 on CAAX farnesyltransferase [2] (setting [4]) was 0.8 µM. Besides, on CAAX farnesyltransferase [2] (setting [5]), the EC50 was determined as 0.0003 µM.

In the case of `CSCC[C@H](NC(=O)CN1C(=O)C(NC(=O)[C@@H](N)CS)CCc2ccccc21)C(=O)O` (some centres unmarked) [compound 10], at CAAX farnesyltransferase [3], the “% farnesylation "A"” value was determined as 20% and the “% farnesylation "B"” value is given as less than 1%. Further, the EC50 on CAAX farnesyltransferase [2] (setting [4]) was determined as 1.6 µM. The EC50 on CAAX farnesyltransferase [2] (setting [5]) came to 1.4 µM.

As for `CN(C(=O)[C@@H](N)CS)C1N=C(c2ccccc2)c2ccccc2N(CC(=O)N[C@@H](CO)C(=O)O)C1=O` (some centres unmarked) [compound 30], on CAAX farnesyltransferase [3], the “% farnesylation "A"” value is recorded as less than 1% and the “% farnesylation "B"” value is listed as less than 1%. At CAAX farnesyltransferase [2] (setting [4]), the EC50 was found to be 10 µM. Also, the EC50 on CAAX farnesyltransferase [2] (setting [5]) was determined as 0.0084 µM.

For `CC(C)C[C@H](NC(=O)CN1C(=O)C(N(C)C(=O)[C@@H](N)CS)N=C(c2ccccc2)c2ccccc21)c1nnn[nH]1` (stereo partly drawn) [compound 46, N-[[3-[(2-amino-3-mercapto-1-oxopropyl)methylamino]-2,3-dihydro-2-oxo-5-phenyl-1H-1,4-benzodiazepin-1-yl]acetyl]-L-leucine tetrazole], the “% farnesylation "B"” value at CAAX farnesyltransferase [3] is given as less than 1%. The figures for the EC50 on CAAX farnesyltransferase [2] (setting [4]) and at CAAX farnesyltransferase [2] (setting [5]) were 0.26 µM and 0.0016 µM, respectively.

For the compound `CSCC[C@H](NC(=O)CN1C(=O)C(N(C)C(=O)[C@H](CS)NC(C)=O)N=C(c2ccccc2)c2ccccc21)C(=O)O` (stereo partly drawn) [compound 32, N-[[3-[(2-acetylamino-3-mercapto-1-oxopropyl)methylamino]-2,3-dihydro-2-oxo-5-phenyl-1H-1,4-benzodiazepin-1-yl]acetyl]-L-methionine], at CAAX farnesyltransferase [3], the “% farnesylation "A"” value is 110% and the “% farnesylation "B"” value is listed as less than 1%. Moreover, at CAAX farnesyltransferase [2] (setting [4]), the EC50 is 1.2 µM. In addition, the EC50 at CAAX farnesyltransferase [2] (setting [5]) worked out at 8 µM.

On to `CN(C(=O)[C@@H](N)CS)C1N=C(c2ccccc2)c2ccccc2N(CC(=O)N[C@@H](Cc2ccccc2)C(=O)O)C1=O` (stereo partly drawn) [compound 34, N-[[3-[(2-amino-3-mercapto-1-oxopropyl)methylamino]-2,3-dihydro-2-oxo-5-phenyl-1H-1,4-benzodiazepin-1-yl]acetyl]-L-phenylalanine], for which the “% farnesylation "B"” value on CAAX farnesyltransferase [3] is recorded as less than 1%. Besides, the EC50 at CAAX farnesyltransferase [2] (setting [4]) is 0.54 µM; on CAAX farnesyltransferase [2] (setting [5]), 0.0005 µM.

Take `CSCC[C@H](NC(=O)CN1C(=O)C(N(C)C(=O)CCS)N=C(c2ccccc2)c2ccccc21)C(=O)O` (some centres unmarked) [compound 29]: on CAAX farnesyltransferase [3], the “% farnesylation "A"” value is listed as less than 1% and the “% farnesylation "B"” value is reported as less than 1%. The EC50 at CAAX farnesyltransferase [2] (setting [4]) came to 1.8 µM. Further, the EC50 on CAAX farnesyltransferase [2] (setting [5]) was 1.8 µM.

As for `CSCC[C@H](NC(=O)CN1C(=O)C(N(C)C(=O)[C@@H](N)CS)N=C(c2ccccc2)c2ccccc21)C(N)=O` (single isomer, unassigned) [33B, N-[[3-[(2-amino-3-mercapto-1-oxopropyl)methylamino]-2,3-dihydro-2-oxo-5phenyl-1H-1,4-benzodiazepin-1-yl]acetyl]-L-methionine amide], in experiment [1] (dose dependence, FIG. 4, compared with 27B and 37B), the “relative potency in intact cells” value is given as “of intermediate potency”.

With `CC(C)C[C@H](NC(=O)CN1C(=O)C(N(C)C(=O)[C@@H](N)CS)N=C(c2ccccc2)c2ccccc21)C(=O)O` (stereo partly drawn) [compound 31, N-[[3-[(2-amino-3-mercapto-1-oxopropyl)methylamino]-2,3-dihydro-2-oxo-5-phenyl-1H -1,4-benzodiazepin-1-yl]acetyl]-L-leucine], on CAAX farnesyltransferase [3], the “% farnesylation "A"” value was less than 1% and the “% farnesylation "B"” value is recorded as less than 1%. Moreover, at CAAX farnesyltransferase [2] (setting [4]), the EC50 stood at 0.084 µM. Further, the EC50 at CAAX farnesyltransferase [2] (setting [5]) worked out at 0.0021 µM.

`CSCC[C@H](NC(=O)CN1C(=O)C(N(C)C(=O)[C@@H](N)CS)CCc2ccccc21)C(=O)O` (some centres unmarked) [compound 9]: the “% farnesylation "A"” value at CAAX farnesyltransferase [3] was less than 1%. For the same compound, the “% farnesylation "B"” value on CAAX farnesyltransferase [3] is on record as less than 1%. In addition, the EC50 at CAAX farnesyltransferase [2] (setting [4]) came to 1.2 µM; at CAAX farnesyltransferase [2] (setting [5]) it was 0.024 µM.
